Laboratory results published in US8759308B2, “RNAi probes targeting cancer-related proteins” (The University of British Columbia, priority 2002, dated 2014).
d = 2'-deoxy (DNA); r = 2'-OH (RNA)

Legend:
KH OS and U-2 OS cells = assay: DXR effects in OS cells (TUNEL, protein expression); format: cell-based, human
Method: Sustained silencing of CLU gene expression in OS cells by siRNA results in significant sensitization to apoptosis induced by genotoxic and oxidative stress. Prior to CLU functional assays, we analyzed the DXR effects in OS cells since the drug-related reported effects vary in different cell-types (Gewritz et al., Biochem. Pharmacol. 57: 727-741 (1999)). As the DXR plasma concentration in treated patients fall into a range of 1-2 μM and decline into a range of 0.025-0.25 μM within 1 h (Muller et al, Cancer Chemother. Pharmacol., 32: 379-384 (1993)) cells were treated with 0.35 and 1 μM of DXR. To analyze the extent of the DXR-mediated cell death we scored apoptosis by TUNEL. Attached cells following drug treatment for 24 h underwent significant morphological changes as compared to non-treated control cells. […] On-going apoptosis is also apparent 24 h later, verifying that apoptosis is a dynamic process that continues even after DXR removal from the medium.

[1] = human, in vivo; cited from earlier work
clusterin [2] = assay: Clusterin Western blot in PC3 cells; format: cell-based, human; details: 10, 50 and 100 nM
Method: 8 species of siRNA targeting clusterin were formed as double-stranded RNA from Seq. ID NOs. 1 and 2, 3 and 4, 5 and 6, 7 and 8, 9 and 10, 11 and 12, 13 and 14, and 15 and 16, and labeled as CLU1-CLU 8, respectively. PC3 cells were transfected with various doses (10, 50 and 100 nM) of the 8 species of siRNA or scrambled control. Three days after treatment, proteins were extracted and analyzed by Western blotting for clusterin levels (MW=40 and 60 kDa).
Densitometric measurements were performed after normalization to a vinculin control the blots for cells treated with CLU-5 (Seq ID Nos. 9 and 10). “Oligo” cells were treated with oligoFECTAMINE™ only.

clusterin [3] = assay: Clusterin Western blot in A549 cells; format: cell-based, human; details: 10, 50 and 100 nM
clusterin transcript [4] = assay: Clusterin transcript by Real Time PCR in PC3 cells; format: cell-based, human; details: 10, 50 or 100 nM, two days
Method: (§1) PC3 cells were transfected with siRNA at levels of 10, 50 or 100 nM or with 100 nM scrambled control. Two days after transfection, total RNA was extracted and the level of clusterin transcript was quantified by Real Time PCR.

clusterin transcript [5] = assay: Clusterin transcript by Real Time PCR in A549 cells; format: cell-based, human; details: 10, 50 or 100 nM, two days
Method: as §1
The experiment of Example 9 was repeated using A549 cells in place of PC3 cells.

clusterin transcript [6] = assay: Clusterin transcript by Northern blot in PC3 cells; format: cell-based, human; details: all doses (10, 50 or 100 nM), two days
Method: PC3 cells were treated (1 pulse) with CLU-3 (Seq ID NOs. 5 and 6) or CLU-5 (Seq ID Nos 9 and 10) or with a scrambled control at levels of 10, 50 or 100 nM, or with oligoFECTAMINE™ only. After two days total RNA was extracted and analyzed for clusterin and GADPH by Northern blotting. Densitometric measurement was performed. FIG. 10 presents results of these measurements after normalization to GADPH.

PC3 cells = assay: PC3 cell viability with siRNA and Taxol, MTT assay; format: cell-based, human; details: 25 nM siRNA, then Taxol three days
Method: PC3 cells were treated once with 25 nM human clusterin siRNAs (CLU-3 and CLU-5), a scrambled control, or oligoFECTAMINE™ only. After two days of treatment, the medium was replaced with medium containing various concentrations of Taxol (Paclitaxel). After three days of incubation, cell viability was determined by MTT assay. FIG. 11 summarizes the results.

clusterin transcript [7] = assay: Clusterin mRNA by Northern blot in OVCAR3 cells; format: cell-based, human; details: 1, 10 or 50 nM, two days
Method: OVCAR3 ovarian cancer cells were treated once with 1, 10 or 50 nM CLU5, scrambled control or a vehicle only control. An untreated control was also run. After two days, total RNA was extracted and analyzed for clusterin and GAPDH mRNA by Northern blot.

clusterin transcript [8] = assay: Clusterin mRNA by Northern blot in MDA-MB 231 cells; format: cell-based, human; details: 5, 50 or 100 nM, two days
Method: MDA-MB 231 human breast cancer cells were transfected with 5, 50 or 100 nM CLU-5 or a scrambled control, or with oligoFECTAMINE™ vehicle alone. Two days after transfection, RNA was extracted and analyzed for clusterin and GAPDH by Northern blotting.

clusterin transcript [9] = assay: Clusterin mRNA by Northern blot in MCF-7 cells; format: cell-based, human; details: 5, 25 or 50 nM, two days
Method: MCF-7 human breast cancer cells were transfected with 5, 25 or 50 nM CLU-5 or a scrambled control, or with oligoFECTAMINE™ vehicle alone. Two days after transfection, RNA was extracted and analyzed for clusterin and GAPDH by Northern blotting.

clusterin [10] = assay: Clusterin Western blot in MCF-7 cells; format: cell-based, human; details: 5 and 50 nM, three days
Method: MCF-7 cells were transfected with various doses (5 and 50 nM) of CLU-5 siRNA or scrambled control. Three days after treatment, proteins were extracted and analyzed by Western blotting for clusterin levels (MW=40 and 60 kDa).

clusterin [11] = assay: Clusterin Western blot in clusterin overexpressing LNCaP/T1 cells; format: cell-based, human; details: 10 nM, 1 pulse, three days
Method: Clusterin overexpressing LNCaP)/T1 cells were transfected (1 pulse) with 10 nM CLU-5 siRNA or scrambled control. Three days after treatment, the proteins were extracted and analyzed by Western blotting for clusterin.

| Compound | bcl-2 expression (KH OS and U-2 OS cells; KH OS and U-2 OS cells) | accumulation of p53, p21 and bax (KH OS and U-2 OS cells; OS cell lines) | PARP cleavage (KH OS and U-2 OS cells; OS cells after DXR treatment) | apoptosis by TUNEL (KH OS and U-2 OS cells; OS cells, 0.35 and 1 μM DXR, 24 h) | plasma concentration [1] [nM] | clusterin by densitometry normalized to vinculin (clusterin [2]) | amount of clusterin (Western blot) (clusterin [2]; three days) | clusterin by densitometry normalized to vinculin (clusterin [3]) | amount of clusterin transcript (clusterin transcript [4]) | amount of clusterin transcript (clusterin transcript [5]) | amount of clusterin transcript normalized to GADPH (clusterin transcript [6]) | viable cells with siRNA plus Taxol (PC3 cells) | amount of clusterin transcript normalized to GAPDH (clusterin transcript [7]) | amount of clusterin transcript normalized to GAPDH (clusterin transcript [8]) | amount of clusterin transcript normalized to GAPDH (clusterin transcript [9]) | amount of clusterin protein relative to scrambled control (clusterin [10]) | clusterin detected by Western blot (clusterin [11]) |
| --- | --- | --- | --- | --- | --- | --- | --- | --- | --- | --- | --- | --- | --- | --- | --- | --- | --- |
| COc1cccc2c1C(=O)c1c(O)c3c(c(O)c1C2=O)C[C@@](O)(C(=O)CO)C[C@@H]3O[C@H]1C[C@H](N)[C@H](O)[C@H](C)O1 [DXR] | no altered expression | found only in U-2 OS cells | accompanied by PARP cleavage | a significant number of them are TUNEL positive | 1000 to 2000 | – | – | – | – | – | – | – | – | – | – | – | – |
| CLU-5: clusterin siRNA, double-stranded RNA from Seq. ID NOs. 9 and 10 (chain 1 AUGAUGAAGACUCUGCUGCTT; chain 2 GCAGCAGAGUCUUCAUCAUTT; sugars from the 5' end r19 d2, backbone not given here) | – | – | – | – | – | dose dependent response | best results | dose dependent response | reduction in the amount of clusterin transcript | reduction in the amount of clusterin transcript | Reduction in the amount of clusterin transcript | worked in synergy | Substantial dose dependent reduction | Substantial reduction | Substantial dose-dependent reduction | reduction in the amount of clusterin protein | No clusterin was detected |
